Values belong to the molecule of their own block, whether it stands above or below them.
What was measured:
PF4 = biological target: T1, PF4 (Homo sapiens, UniProt P02776); experiment: DT40 cell (FcγRIIA + NFAT-Luc reporter) activation assay: inhibition by PF4 antagonists; type: cell-based; details: for IC50: PF4 10 μg/mL, heparin 0.3 U/mL, KKO 20 μg/mL, luciferase readout after 6 hours; for inhibition of FcγRIIA-dependent cellular activation (in words): activation by KKO, dose-response, FIG. 1C
T1 construct: platelet factor 4 which is a 70 amino acid, lysine-rich, 7.8 kDa platelet-specific protein; made in house; host or cells: Drosophila Schneider 2 (S2) cells
T1 sequence (P02776 32-101): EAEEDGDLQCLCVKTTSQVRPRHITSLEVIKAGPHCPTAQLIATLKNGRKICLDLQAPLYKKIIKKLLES
Protocol: (§1) DT40 cells (chicken B cells) were cultured in RPMI supplemented with 10% fetal bovine serum, 1% chicken serum (Gibco), 50 μM 13-mercaptoethanol, 2 mM GlutaMAX (Gibco), 100 U/mL penicillin and 100 U/mL streptomycin at 37° C. under 5% CO2. Cells were co-transfected with 5 μg pEF6-FcγRIIA and 20 μg pEF6-NFAT-Luc by electroporation. Positive transformants were selected using blastidicin.
On day following transfection, cells were pelleted by centrifugation and re-suspended at 2×10^6 cells/mL in fresh medium without serum. Cell aliquots (50 μL) were placed into each well of a 96 well plate. To establish basal expression, 50 μL media was added. Further, the cells were also incubated independently with the following: PF4, heparin, RTO antibody, KKO antibody, ULCs alone, ULCs and RTO; ULCs and KKO and IV.3 antibody. Monoclonal antibody IV.3 (an FcγRIIA-blocking antibody) was used in combination with an anti-Fc antibody to activate FcγRIIA bound by IV.3 as a positive control for FcγRIIA signaling. 8 μg/mL of IV.3 was added for 15 minutes at 37° C. under 5% CO2, followed by 50 μL of sheep anti-mouse-IgG secondary antibody at 15 μg/mL to crosslink and activate these receptors. As a positive control for an intact intracellular signaling pathway, phorbol myristate acetate (PMA; 25 ng/mL) with ionomycin (1 μM) was added (not shown).
We then used this assay to measure the inhibitory capacity of the PF4 antagonist compounds described in the concurrently filed related application referenced above. PF4 (10 μg/mL) and various concentrations of potential antagonists were co-incubated for 60 min at 37° C. under 5% CO2 followed by the addition of heparin (0.3 U/mL) for 15 min at 37° C. in 5% CO2. KKO (20 μg/mL) or plasma from patients with serotonin release assay confirmed HIT (1:800 dilution) was then added. 50 μL of each mixture was added to the 96 well plate containing 50 μL of cells at a concentration of 2×10^6 cells/mL in fresh medium without serum. Plates were incubated for 6 hours at 37° C. under 5% CO2, and then frozen at −80° C. To measure activation, cells were thawed and lysed with 5× Passive Lysis Buffer (Promega) for 15 minutes. Luciferase activity was measured on a Berthold MultiLumat LB 9506 Luminometer (10 sec readings) using Promega's Luciferase Assay Reagent following the manufacturer's instructions. In other experiments, PF4 antagonists discussed herein were incubated with PF4 for 5 minutes with the same results.

platelets = experiment: Serotonin release assay with 14C-labeled platelets; type: cell-based, human; details: for inhibition of platelet activation by KKO (release of 14C-serotonin): KKO 170 μg/mL, heparin 1.0 U/mL, antagonists 2.5 mM, FIG. 1E
Protocol: To confirm the results of the novel assay, an independent, orthogonal assessment of activity was performed using a serotonin release assay. Serotonin release assays are described in Hirschman, “The use of platelet serotonin release as a sensitive method for detecting anti-platelet antibodies and a plasma anti-platelet factor in patients with idiopathic thrombocytopenic purpura”, Br. J. Haematol., 24(6):793-802 (1973), and Rauova and Cines, “Heparin-associated thrombocytopenia”, N. Engl. J. Med., 303:788-795 (1980), which are hereby incorporated by reference.
Briefly, platelet rich plasma (PRP) from healthy donors was incubated with 0.5 μL ^14C-5-hydroxytryptamine creatinine sulfate (GE Life Sciences, Piscataway, N.J.) per milliliter of PRP for 20 minutes at 37° C. to produce ^14C-labeled platelets. Serotonin uptake was inhibited by adding […] imipramine (Sigma-Aldrich, St. Louis, Mo.) to the PRP.
The radiolabeled platelets were mixed with KKO (170 μg/mL) or with known platelet-activating HIT plasma in the absence (buffer control) or presence of PF4 antagonist compounds 1, 34, 80, 101, and 96. Assays were performed in the presence of heparin (1.0 U/mL) and in the absence of heparin (background). Negative controls without antibody were studied in parallel. Data are expressed as % maximal release of radioactivity with release by the positive control plasma and 1.0 U/mL heparin defined as 100%.

FcγRIIA = experiment: Activation of DT40 cells transfected with FcγRIIA and a Luc reporter; type: cell-based, human; details: FIG. 1A
Protocol: B cells used in the novel assays of the invention were prepared as follows. NFAT-Luc was kindly provided by Prof Arthur Weiss (Shapiro, “c-rel Regulation of IL-2 gene expression may be mediated through activation of AP-1”, J. Exp. Med., 184(5):1663-1669 (1996), hereby incorporated by reference). The NFAT reporter contains three copies of a composite NFAT-activator protein-1 (AP-1) element from the human interleukin-2 (IL-2) gene promoter, and is activated by binding of NFAT (nuclear factor of activated T-cells). pEF6-FcγRIIA, which contains the human FcγRIIA coding sequence under the control of the human EF-1a promoter, was constructed by cloning a human FcγRIIA IMAGE clone into the multiple cloning site of pEF6c (Invitrogen).
as §1, with “blastidicin. […]” for “blastidicin.”
It was next examined whether FcγRIIA activation was heparin-dependent. To do so, activation by KKO was measured using a constant amount of PF4 and increasing amounts of heparin. […]

IC50 (PF4): 33 µM
Molecule: CC(=O)C1=C(O)c2cc([N+](=O)[O-])ccc2C1=O [Compound 1]

Molecule: O=C1CC([PH](=O)O)CO1 (stereo not shown) [Compound 34]
IC50 (PF4): > 500 µM | inhibition of FcγRIIA-dependent cellular activation (in words) (PF4): not inhibitory

IC50 (PF4): 440 µM | inhibition of FcγRIIA-dependent cellular activation (in words) (PF4): less potent
Molecule: O=C(O)CCc1ccc(-c2ccc(Cl)cc2)n1CC(=O)O [Compound 80]
inhibition of platelet activation by KKO (release of 14C-serotonin) (platelets): inhibited

IC50 (PF4): 500 µM | inhibition of FcγRIIA-dependent cellular activation (in words) (PF4): less potent
Molecule: O=C(O)c1ccccc1OP(=O)(O)O [Compound 96]
inhibition of platelet activation by KKO (release of 14C-serotonin) (platelets): inhibited

inhibition of DT40 activation by human HIT plasma (PF4; HIT plasma 1:800 dilution, similar potency as activation by KKO, FIG. 1D): inhibited | IC50 (PF4): 100 µM | inhibition of FcγRIIA-dependent cellular activation (in words) (PF4): complete inhibition | inhibition of DT40 activation by KKO and patient samples (PF4; antagonist concentration 500 μM, KKO and plasma from three HIT patients, FIG. 1D): completely inhibited
Molecule: CCOC(=O)Cn1c(CCC(=O)O)ccc1-c1ccc(Cl)cc1 [Compound 101]
inhibition of serotonin release from platelets activated by plasma from patients with HIT (platelets; HIT plasma, several antagonist concentrations, FIG. 1F): inhibited | inhibition of platelet activation by KKO (release of 14C-serotonin) (platelets): inhibited

B1: PF4: platelet factor 4, 70 amino acid, lysine-rich 7.8 kDa platelet-specific CXC chemokine protein (protein, UniProt P02776 32-101, looked up)
Platelet factor 4: T1 sequence (P02776 32-101)
activation of FcγRIIA-expressing DT40 cells, substance added alone (FcγRIIA): did not activate

Source: patent publication US20150037821A1, “METHODS OF IDENTIFYING HIT-ANTIBODIES AND PF4 ANTAGONISTS AND CELL LINES FOR USE THEREIN” (THE TRUSTEES OF THE UNIVERSITY OF PENNSYLVANIA, priority 2012, published 2015)
